{"source": "patent US6020176A", "about": "“Kaurene synthase” (The Institute of Physical and Chemical Research, priority 1995, dated 2000)", "system": "ent-kaurene synthase B (KSB)", "assay": "Properties of KSB with the phenyl-purified enzyme preparation (pH, Km, cations)", "type": "biochemical, Cucurbita maxima L.", "settings": "for effect of divalent cation on KSB activity: 0.1-50 mM as chlorides, instead of 5 mM Mg2+; for effect of divalent cation on KSB activity / optimal concentration of cation for KSB activity: FIG. 4; for optimal concentration of cation for KSB activity: cation as chloride instead of 5 mM Mg2+", "protocol": "The mixture was incubated at 30° C. for 30 min, and the enzyme reaction was terminated by the addition of acetone (200 μL) and water (100 μL). The mixture was extracted with n-hexane (400 μL), and 300 μL alibuots of the extract were concentrated in vacuo and applied to a silica gel plate. After developing with n-hexane, the radioactivity of the silica gel of the ent-kaurene region (Rf 0.6-1.0) was determined. One unit of kaurene synthase activity was defined as the production of 1 pmol of ent-kaurene per minute.\nThe amount of [1-^3 H]CPP was 2.2 kBq and the incubation period was 15 min. The other conditions were the same as those for the enzyme assay. To determine the optimal pH, KPi buffer (50 mM) adjusted to a particular pH (pH 4.5 to 9.0) was used. […] The production of ent-kaurene was calculated and the Km value was determined from a Lineweaver-Burk plot."}
{"compound": "[Ba+2].[Cl-].[Cl-]", "note": "[Ba^2+]", "values": [{"measurement": "effect of divalent cation on KSB activity", "result": "showed no effects"}, {"measurement": "effect on KSB activity in combination with 5 mM Mg2+", "setting": "added together with 5 mM Mg2+", "result": "inhibited KSB activity promoted by Mg^2+"}]}
{"compound": "[Ca+2].[Cl-].[Cl-]", "note": "[Ca^2+]", "values": [{"measurement": "effect of divalent cation on KSB activity", "result": "showed no effects"}, {"measurement": "effect on KSB activity in combination with 5 mM Mg2+", "setting": "added together with 5 mM Mg2+", "result": "inhibited KSB activity promoted by Mg^2+"}]}
{"compound": "[Cl-].[Cl-].[Co+2]", "note": "[Co^2+]", "values": [{"measurement": "effect of divalent cation on KSB activity", "result": "promoted KSB activity"}, {"measurement": "optimal concentration of cation for KSB activity", "result": "around 10 mM"}]}
{"compound": "[Cl][Cu][Cl]", "note": "[Cu^2+]", "values": [{"measurement": "effect of divalent cation on KSB activity", "result": "showed no effects"}, {"measurement": "concentration completely inhibiting the conversion promoted by 5 mM Mg2+", "setting": "added together with 5 mM Mg2+", "result": "above 0.5 mM"}, {"measurement": "effect on KSB activity in combination with 5 mM Mg2+", "setting": "added together with 5 mM Mg2+", "result": "inhibited KSB activity promoted by Mg^2+"}]}
{"compound": "O=C(O)CN(CCN(CC(=O)O)CC(=O)O)CC(=O)O", "note": "[EDTA]", "values": [{"measurement": "effect of EDTA on KSB activity", "setting": "EDTA 1-100 mM", "result": "did not change KSB activity"}]}
{"compound": "[Cl][Fe][Cl]", "note": "[Fe^2+]", "values": [{"measurement": "effect of divalent cation on KSB activity", "result": "weakly promoted KSB activity"}]}
{"compound": "[Cl-].[Cl-].[Mg+2]", "note": "[Mg^2+]", "values": [{"measurement": "effect of divalent cation on KSB activity", "result": "promoted KSB activity"}, {"measurement": "optimal concentration of cation for KSB activity", "result": "around 10 mM"}]}
{"compound": "[Cl][Mn][Cl]", "note": "[Mn^2+]", "values": [{"measurement": "effect of divalent cation on KSB activity", "result": "promoted KSB activity"}, {"measurement": "optimal concentration of cation for KSB activity", "result": "around 10 mM"}]}
{"compound": "[Cl][Ni][Cl]", "note": "[Ni^2+]", "values": [{"measurement": "effect of divalent cation on KSB activity", "result": "weakly promoted KSB activity"}]}
{"compound": "C=C1CC[C@@H]2C(C)(C)CCC[C@@]2(C)[C@@H]1CC/C(C)=C/COP(=O)(O)OP(=O)(O)O", "note": "[[15-^3 H]CPP, copalyl pyrophosphate]", "values": [{"measurement": "Km", "setting": "phenyl-purified enzyme preparation, CPP 7 to 480 nM, Lineweaver-Burk plot", "result": 0.35, "unit": "µM"}]}
